Patent US12042479B2, “Use of topical formulations of cannabinoids in the treatment of epidermolysis bullosa and related connective tissue disorders” (priority 2016, dated 2024)
“Also recorded” adds a separate entry of the source. Like-named read-outs stand apart in the source and are kept apart here.

Assays:
CB1 receptor = CB1 receptor expression by human fibroblasts under TGFβ1 (western blot); format: cell-based; conditions: CB1 receptor/HSP90 ratio, FIG. 22
αSMA = test: TGFβ1-induced αSMA expression in human fibroblasts (immunoblot); format: cell-based; conditions: αSMA/HSP90 ratio, FIG. 23
Procedure: Experimental Design: HaCaT and HFL-1 cells cultured in 24-well plates (1×10^5 cells/well/mL) in DMEM supplemented with 1% FBS and antibiotics/antimycotics in the presence of INM-501, INM-509, INM-505, INM-506, INM-513 (cannabigerol (CBG)), INM-517, HU-210 ((6aR,10aR)-9-(hydroxymethyl)-6,6-dimethyl-3-(2-methyloctan-2-yl)-6H,6aH,7H,10H,10aH-benzo[c]isochromen-1-ol)), and SR144528 (all at 1 μM concentration, EchoPharmaceuticals, AT Nijmegen, The Netherlands, Cayman Chemical, Ann Arbor, MI) alone or with simultaneously added human recombinant TGFβ1 at 10 and 20 ng/ml concentrations for 72 hr. Cell culture supernatants were removed and cells were lyzed with Cell Protein Extraction Buffer supplemented with Proteinases/Phosphatases Inhibitors Cocktail. […]
(§1) Assay Procedures: EMT induced by TGFβ1 in keratinocytes was analyzed by expression of human E-Cadherin (E-CDH) and Cellular Fibronectin (FBN-EDA). Fibroblast activation and differentiation was determined by αSMA expression. E-CDH, FBN-EDA and αSMA proteins were determined by SDS-PAGE and Immunobloting using mouse anti-human E-CDH, FBN-EDA and αSMA monoclonal antibodies. […] Density of the bands was quantified in two infrared channels independently using Odyssey software 2.1 (LI-COR Biosciences). The results are expressed as a protein/β-tubulin/HSP90 density ratio.

CCL2/MCP-1 = format: cell-based, human
[1] = system: keratins K5, K6, K14, K15, K16, K17; test: Keratin expression in HaCaT keratinocytes by Western blot; format: cell-based, human; conditions: for expression of K15: Western blot, cells pretreated with IFNγ/TNFα, FIG. 6 right; for K5 protein expression / K14 protein expression / K15 protein expression / K16 protein expression / K17 protein expression: post-differentiating human keratinocyte cells, concentration dependent effect, FIG. 20
Procedure: Cell culturing was performed as follows: HaCaT, human immortalized keratinocyte cell line was cultured in Dulbecco's Modified Eagle Medium (DMEM; Life Technologies Hungary Ltd.) supplemented with 10 (V/V) % fetal bovine serum (FBS; Life Technologies Hungary Ltd.) and antibiotics mixture (penicillin and streptomycin in 1:100; PAA Laboratories GmbH, Pasching, Austria) and Fungizone® Antimicotic (in 1:200; Life Technologies Hungary Ltd.) respectively.
Cells were cultured at 37° C. in humidified, 5% CO2-containing atmosphere, the medium was changed every other day, and cells were sub-cultured at 70-80% confluence in all cases. For the drug treatment, the medium was changed every day.
Western blotting was used to determine the expression of keratins in HaCaT cells. The initial cell count was 2×10^5 cells/per Petri dish in “small” (d=35 mm) Petri dishes in 1.5 mL culture medium (DMEM supplemented with FBS (10%), antibiotics and antimycotics). Cells were harvested at the following stages: preconfluent (proliferating) and postconfluent (differentiating). The combinations employed for Western blotting were cannabidiols:cannabinol (1:0.1 μM), cannabidiols:cannabinol (0.1:1 μM), and cannabidiols:cannabinol (1:1 μM). The genes whose expression was investigated by Western blotting were GAPDH or β-actin as internal controls and (K1), K5, K6, (K10), K14, K15, K16, and K17. Protein samples were used at 5 μl/well. The standards used were PageRuler Plus Prestained (Pierce). Electrophoresis was at 100 volts.
Transfer was performed using the Trans-Blot® Turbo™ Transfer System (1.3 A, 25 V, 7 min). The primary antibody was used at 1:100 in 5% milk containing PBS; overnight at 4° C.; the primary antibody was guinea pig anti-human keratins: anti human Keratin 1, Keratin 5, Keratin 6, Keratin 14, Keratin 15, Keratin 16, Keratin 17 (from Lutz Langbein; predicted band: […]). The secondary antibody was used at 1:1000 in 5% milk containing PBS; 1 hr at RT; the secondary antibody was HRP-conjugated goat anti-Guinea Pig IgG (Santa Cruz). The loading controls were Rabbit anti-human GAPDH (Novus Biologicals; Cat. No.: NB300-322; predicted band: ˜37 kDa) or anti-human β-actin (Sigma-Aldrich; Cat. No.: A2668; predicted band: ˜42 kDa) 1:1000 in 5% milk containing PBS. HRP-conjugated goat anti-rabbit IgG Fc-segment (BioRad 170-6515; 1:1000) was used.
For statistical analysis, data were analyzed and graphs were plotted by using Origin Pro Plus 6.0 software (Microcal, Northampton, MA, USA), using Student's two-tailed two samples t-test and P<0.05 values were regarded as significant differences.

IL-6 = test: IFNγ/TNFα-induced IL-6 production by human keratinocytes; format: cell-based; conditions: FIG. 13
IL-8 = IL-8 production by human keratinocytes; format: cell-based; conditions: basal, FIG. 13
[2] = Skin penetration, Franz diffusion cell; format: in vitro ADME, porcine; conditions: after 18 hours at 32° C.; 400 μg applied; LABRASOL/Plo-gel formulation; FIG. 18
Procedure: Skin penetration of formulations described herein was measured according to the following procedure: the formulation was LABRASOL® (caprylocaproyl polyoxyl-8 glycerides), Plo-gel (Poloxomer 407, Lecithin, isopropyl palmitate). The formulation is applied to the center part of the circle and is rubbed to the skin using a […]. The sample is mounted to the top of a Franz diffusion cell with the outer layer of the skin facing upward. The receptor medium of the Franz cell is filled with phosphate buffer. The cap of the cell is mounted and clamped. This construct is placed inside the incubator/shaker for 18 hours at 32° C. (FIG. 14).

fibronectin-EDA = test: TGFβ1-induced fibronectin-EDA expression in HaCaT keratinocytes (immunoblot); format: cell-based; conditions: human keratinocytes; fibronectin-EDA/β-tubulin ratio; FIG. 21, 25
Description: (§2) For western blotting in the wound healing analysis, epithelial-mesenchymal transition (EMT) is a critical element of epithelial biology, cancer development, and fibrosis. Chronic activation of TGF-β-signaling in the skin ultimately leads to fibrosis (keloid). EMT of keratinocytes is adaptive response in the normal wound healing process. It is characterized by decrease of E-cadherin (important element of keratinocyte integrity and tight junction formation) expression and upregulation of cellular fibronectin (Fibronectin-EDA) production. The latter is a very important protective element of epithelial cells during mucosal tissue repairs.
(§3) Total protein extracts were prepared from synchronized HaCaT cells at different times. […]
as §1

E-cadherin = test: TGFβ1-induced E-cadherin inhibition in HaCaT keratinocytes (immunoblot); format: cell-based; conditions: human keratinocytes; E-cadherin/β-tubulin ratio; FIG. 21, 24
Description: as §2, §3, §1

[3] = system: keratins K5, K6, K14, K15, K16, K17; test: Keratin expression in HaCaT keratinocytes by Western blot; format: cell-based, human; conditions: 10 μM

**Q.** Which “cell responsiveness to TGFβ1” value (CB1 receptor) does the source give for `Cc1c(C(=O)NN2CCCCC2)nn(-c2ccc(Cl)cc2Cl)c1-c1ccc(I)cc1` [AM251, N-(piperidin-1-yl)-5-(4-iodophenyl)-1-(2,4-dichlorophenyl)-4-methyl-1H-pyrazole-3-carboxamide] here?
**A.** The value was “modify”.

**Q.** What about the “TGFβ1-induced αSMA expression (TGFβ1-responsiveness)” value (αSMA) of the same compound?
**A.** Its value is “upregulating”.

**Q.** For `COc1ccc(C(=O)c2c(C)n(CCN3CCOCC3)c3cc(I)ccc23)cc1` [AM630, 6-iodopravadoline], which “cell responsiveness to TGFβ1” value (CB1 receptor) is on record?
**A.** The value was “modify”.

**Q.** Which “IFNγ/TNFα-induced CCL2/MCP-1 production” value (CCL2/MCP-1) does the source give for `CCCCCCC(C)(C)c1cc(O)c2c(c1)OC(C)(C)[C@@H]1CC=C(CO)C[C@@H]21` [HU-210, (6aR,10aR)-9-(hydroxymethyl)-6,6-dimethyl-3-(2-methyloctan-2-yl)-6H,6aH,7H,10H,10aH-benzo[c]isochromen-1-ol] here?
**A.** Its value is “upregulated; also recorded: highest effect; also recorded: increase”.

**Q.** With `C=C(C)[C@@H]1CCC(C)=C[C@H]1c1c(O)cc(CCCCC)cc1O` [INM-505, cannabidiols] as the compound, how does the “expression of K15” value [1] read?
**A.** Its value is “promote”.

**Q.** What about the K5 protein expression [1] of the same compound?
**A.** The K5 protein expression was “generally increases”.

**Q.** What about the K14 protein expression [1] of the same compound?
**A.** Its K14 protein expression is “generally increases”.

**Q.** And the K15 protein expression [1]?
**A.** The K15 protein expression was “generally increases”.

**Q.** What about the K16 protein expression [1] of the same compound?
**A.** The K16 protein expression was “generally increases”.

**Q.** What about the K17 protein expression [1] of the same compound?
**A.** The K17 protein expression was “generally increases”.

**Q.** What about the “production of IL-6 by IFNγ/TNFα” value (IL-6) of the same compound?
**A.** The value was “attenuate”.

**Q.** And the IL-8 production (IL-8)?
**A.** The IL-8 production was “highly selective inhibitory effect”.

**Q.** What about the “location of cannabinoid molecules in skin” value [2] of the same compound?
**A.** Its value is “located in keratinocytes and basal cells”.

**Q.** And the “IFNγ/TNFα-induced CCL2/MCP-1 production” value (CCL2/MCP-1)?
**A.** The value was “upregulated; also recorded: increase”.

**Q.** With `CCCCCc1cc(O)c(C/C=C(\C)CCC=C(C)C)c(O)c1` [INM-513, cannabigerol] as the compound, how does the “IFNγ/TNFα-induced CCL2/MCP-1 production” value (CCL2/MCP-1) read?
**A.** Its value is “upregulated”.

**Q.** For `CCCCCc1cc(O)c2c(c1)OC(C)(C)c1ccc(C)cc1-2` [INM-517, 6,6,9-trimethyl-3-pentylbenzo[c]chromen-1-ol], which “TGF-β-induced fibronectin-EDA expression” value (fibronectin-EDA) is on record?
**A.** Its value is “preserving”.

**Q.** What about the “TGF-β-induced downregulation of E-cadherin” value (E-cadherin) of the same compound?
**A.** Its value is “strong and potent effect”.

**Q.** What about the “expression of K15” value [1] of the same compound?
**A.** The value was “promote”.

**Q.** What about the K5 protein expression [1] of the same compound?
**A.** Its K5 protein expression is “generally increases”.

**Q.** What about the K14 protein expression [1] of the same compound?
**A.** Its K14 protein expression is “generally increases”.

**Q.** What about the K15 protein expression [1] of the same compound?
**A.** The K15 protein expression was “generally increases”.

**Q.** What about the K16 protein expression [1] of the same compound?
**A.** The K16 protein expression was “generally increases”.

**Q.** What about the K17 protein expression [1] of the same compound?
**A.** Its K17 protein expression is “generally increases”.

**Q.** And the K14 gene expression [3]?
**A.** Its K14 gene expression is “downregulated”.

**Q.** What does the source list for `Cc1ccc(Cn2nc(C(=O)N[C@@H]3C(C)(C)[C@@H]4CC[C@@]3(C)C4)cc2-c2ccc(Cl)c(C)c2)cc1` [SR144528, 5-(4-chloro-3-methylphenyl)-1-[(4-methylphenyl)methyl]-N-[(1S,2S,4R)-1,3,3-trimethylbicyclo[2.2.1]heptan-2-yl]-1H-pyrazole-3-carboxamide]?
**A.** basal CCL2 production (CCL2/MCP-1; HaCaT, 72 hr, method prints 1 mM, b249 prints 1 μM): did not significantly change; IFNγ/TNFα-induced CCL2/MCP-1 production (CCL2/MCP-1; HaCaT, IFNγ and TNFα 10 ng/ml, 72 hr, method prints 1 mM, b249 prints 1 μM): did not significantly change

**Q.** What does the source list for `CCCCCc1cc(O)c2c(c1)OC(C)(C)[C@@H]1CCC(C)=C[C@@H]21` [Δ^9-tetrahydrocannabinol]?
**A.** IFNγ/TNFα-induced CCL2/MCP-1 production (CCL2/MCP-1): no significant effects; basal CCL2 production (CCL2/MCP-1): no significant effects
